Source: ChEMBL document CHEMBL1201862, “PubChem BioAssay data set” (2004)
Activity calls are given as the source filed them.

Experiments:
[1] = biological target: 5-hydroxytryptamine receptor 1A (Homo sapiens, UniProt P08908); format: functional
[2] = biological target: Eukaryotic translation initiation factor 4E (Mus musculus, UniProt P63073); assay: eIF4E–eIF4G protein interaction inhibitors, dose response, biochemical, TR-FRET (AID 855); format: functional;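 further: potency for disrupting eIF4E binding to eIF4GI seen as loss of FRET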
[3] = biological target: T1, Tyrosine-protein phosphatase non-receptor type 7 (Homo sapiens, UniProt P35236); assay: inhibitors of human HePTP phosphatase, […], biochemical, absorbance, leukemia target (AID 521); format: functional
T1 sequence (P35236 whole entry): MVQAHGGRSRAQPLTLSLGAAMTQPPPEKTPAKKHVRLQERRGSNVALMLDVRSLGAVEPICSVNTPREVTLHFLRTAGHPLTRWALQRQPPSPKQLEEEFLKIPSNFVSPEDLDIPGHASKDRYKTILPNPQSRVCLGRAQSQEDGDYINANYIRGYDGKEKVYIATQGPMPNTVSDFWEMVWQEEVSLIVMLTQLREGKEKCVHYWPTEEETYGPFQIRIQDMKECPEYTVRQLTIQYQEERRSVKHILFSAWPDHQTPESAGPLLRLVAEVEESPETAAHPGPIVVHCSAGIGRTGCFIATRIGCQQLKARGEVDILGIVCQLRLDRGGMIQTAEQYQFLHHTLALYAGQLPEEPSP

Troponin, cardiac muscle = Troponin, cardiac muscle (Homo sapiens, UniProt P19429+P45379+P63316); assay: Fluorescence-based biochemical high throughput dose response assay for activators of the calcium sensitivity of cardiac Regulated Thin Filaments (RTF). [Related pubchem assays (depositor defined):AID493008, AID493018, AID504382, AID504383]; format: protein-complex assay
[4] = Luminescence-based dose response cell-based high throughput screening assay for cytotoxic compounds using the IEC-6 intestinal epithelial cell line. [Related pubchem assays: 1858 (Summary AID.), 1825 (Counterscreen.), 1907 (Confirmation screen.)]; format: functional
[5] = cytotoxicity in HEK-293T cells, dose response, cytotoxicity control for TCR NF-kB inhibitor project, luminescence, T-cell screen hits (AID 489026); format: functional, cell-based;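 further: cells exposed to compound about 14 hours before the viability readout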
cells [6] = assay: cells
[7] = cytotoxicity toward NIH3T3 fibroblasts, dose response, counter-screen, cell-based, ATP luminescence, mouse fibroblasts (AID 2010); format: functional;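 further: cells exposed to compound for about 90 hours before reading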
[8] = inhibitors of intracellular T. cruzi replication, confirmation, NIH3T3 host cells, beta-gal luminescence (AID 2044); format: functional, cell-based;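 further: intracellular parasites grown in NIH/3T3 mouse fibroblasts as host cells; luminescent beta-galactosidase reporter signal from transgenic T. cruzi replicating inside host cells; inhibitors lower the luminescence signal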
[9] = biological target: Matrix metalloproteinase-14 (Homo sapiens, UniProt P50281); assay: Dose Response confirmation of uHTS hits for a small molecule inhibitors of MT1-MMP activation in a fluorescence assay set 2.; format: functional
Transthyretin = Transthyretin (Homo sapiens, UniProt P02766); assay: Luminescence-based cell-based high throughput dose response assay to identify activators of Transthyretin (TTR) transcription.; format: functional
[10] = Luminescence Cell-Based Dose Retest to Confirm Inhibitors of Cancer Stem Cells. [Related pubchem assays (depositor defined):AID2717, AID2721]; format: functional; details: Homo sapiens
[11] = microbe, parasite or virus in culture; format: functional; details: Mycobacterium tuberculosis
[12] = ADAM10 inhibitors, peptide cleavage, dose response, biochemical, QFRET (AID 743254);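 further: ADAM10 enzyme with the DM2 quenched FRET peptide as substrate; EDANS fluorescence gain as the protease cuts the substrate; inhibitor potency against ADAM10 proteolytic activity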
[13] = biological target: Disintegrin and metalloproteinase domain-containing protein 17 (Homo sapiens, UniProt P78536); assay: ADAM17 protease inhibitors, dose response, counter-screen for ADAM10 exosite inhibitor project, biochemical, quenched FRET substrate (AID 743253)
[14] = biological target: T2, Trace amine-associated receptor 1 (Homo sapiens, UniProt Q96RJ0); assay: Counterscreen for agonists of the human trace amine associated receptor 1 (hTAAR1): Fluorescence-based cell-based high throughput dose response assay to identify hTAAR1 agonist that also desensitize TAAR1 receptor response.; format: functional
T2 sequence (Q96RJ0 whole entry): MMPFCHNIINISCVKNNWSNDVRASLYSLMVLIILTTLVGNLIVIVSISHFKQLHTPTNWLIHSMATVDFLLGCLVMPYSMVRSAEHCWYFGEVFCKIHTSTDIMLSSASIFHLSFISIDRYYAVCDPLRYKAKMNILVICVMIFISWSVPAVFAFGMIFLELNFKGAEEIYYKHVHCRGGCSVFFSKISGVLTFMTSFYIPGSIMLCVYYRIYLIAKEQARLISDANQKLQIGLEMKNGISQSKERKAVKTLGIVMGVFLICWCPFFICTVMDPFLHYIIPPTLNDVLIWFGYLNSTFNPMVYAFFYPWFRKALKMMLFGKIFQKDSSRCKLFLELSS

[15] = biological target: T2, Trace amine-associated receptor 1; assay: Fluorescence-based cell-based high throughput dose response assay to identify agonists of the human trace amine associated receptor 1 (TAAR1).; format: functional
cells [16] = format: functional, cell-based
cells [17] = format: functional, cell-based; remark: listed apart in the source
Kallikrein-7 = Kallikrein-7 (Homo sapiens, UniProt P49862); assay: Fluorescence Intensity-based biochemical primary high throughput dose response assay to identify activators of kallikrein-7 (K7) zymogen.
[18] = biological target: T3, Oxysterols receptor LXR-beta (Homo sapiens, UniProt P55055); assay: LXR agonists, Gal4 luciferase reporter, dose response, counter-screen for ssDAF-12 agonist project, cell-based, luminescence, HEK293, S. stercoralis campaign (AID 720737); format: functional; details: read-out: IC50 (the source's name)
T3 sequence (P55055 whole entry): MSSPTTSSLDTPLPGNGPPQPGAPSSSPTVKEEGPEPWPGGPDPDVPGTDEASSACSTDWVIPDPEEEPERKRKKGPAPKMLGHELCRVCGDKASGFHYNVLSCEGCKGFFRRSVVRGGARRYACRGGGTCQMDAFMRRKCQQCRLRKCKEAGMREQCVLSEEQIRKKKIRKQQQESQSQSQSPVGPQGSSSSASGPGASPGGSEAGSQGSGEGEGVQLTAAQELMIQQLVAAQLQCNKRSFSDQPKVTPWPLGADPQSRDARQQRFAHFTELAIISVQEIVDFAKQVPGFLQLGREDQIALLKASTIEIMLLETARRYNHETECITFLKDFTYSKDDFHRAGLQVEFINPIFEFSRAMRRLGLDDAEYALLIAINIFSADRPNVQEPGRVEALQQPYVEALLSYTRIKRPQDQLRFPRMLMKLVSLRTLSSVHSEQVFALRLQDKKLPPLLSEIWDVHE

[19] = Luminescence-based cell-based high throughput dose response assay to identify activators of the DAF-12 from the parasite S. stercoralis (ssDAF-12).; format: functional
[20] = IGROV1 ovarian cancer cell cytotoxicity, dose response, PAX8 inhibitor project, plate reader, dry powder samples (AID 743043); format: functional, cell-based; details: IGROV-1
Paired box protein Pax-8 = Paired box protein Pax-8 (Homo sapiens, UniProt Q06710); assay: inhibitors of PAX8-driven TPO luciferase reporter, dose response, RMG-I cells, cherry-pick (AID 687027); format: functional, cell-based;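 further: luciferase reporter driven by Pax8 target thyroperoxidase promoter measured by SteadyGlo luminescence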
[21] = NIH:OVCAR-3 ovarian cancer cell cytotoxicity, dose response, PAX8 inhibitor project, plate reader, dry powder samples (AID 743044); format: functional, cell-based
[22] = cytotoxicity in OVCAR8 ovarian cancer cells, dose response, PAX8 project, cell-based, plate reader, dry powder samples (AID 743197); format: functional; details: OVCAR-8
[23] = non-specific cell cytotoxicity, dose response, cytotoxicity control for PAX8 inhibitor project, plate reader, dry powder samples (AID 743021); format: functional, cell-based
[24] = A375 melanoma cell viability loss, dose response, counter-screen for MITF inhibitor project, CellTiter-Glo luminescence, dry powder, set 4 (AID 624364); format: functional, cell-based; details: A-375;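 further: A375 melanoma cells are MITF independent so this is a counter screen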
[25] = A375 melanoma cell cytotoxicity, dose response, counter-screen for MITF inhibitor project, CellTiter-Glo luminescence, dry powder, set 2 (AID 624489); format: functional, cell-based; details: A-375;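 further: actives are compounds lowering A375 viability meaning general cytotoxicity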

Chain of Paired box protein Pax-8 (Q06710 whole entry): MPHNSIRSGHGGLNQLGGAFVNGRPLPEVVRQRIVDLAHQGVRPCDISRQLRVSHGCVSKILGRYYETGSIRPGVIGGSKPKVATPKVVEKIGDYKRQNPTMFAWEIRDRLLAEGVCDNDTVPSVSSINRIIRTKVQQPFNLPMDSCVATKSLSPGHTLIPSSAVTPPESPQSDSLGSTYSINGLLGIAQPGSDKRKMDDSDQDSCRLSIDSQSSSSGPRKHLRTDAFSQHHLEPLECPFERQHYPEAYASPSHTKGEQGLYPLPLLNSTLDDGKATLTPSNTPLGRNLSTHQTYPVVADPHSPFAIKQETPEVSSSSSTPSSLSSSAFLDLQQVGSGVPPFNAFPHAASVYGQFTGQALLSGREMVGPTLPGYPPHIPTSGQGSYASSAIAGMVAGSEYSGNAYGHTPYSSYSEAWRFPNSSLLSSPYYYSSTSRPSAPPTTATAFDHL
Chain of Disintegrin and metalloproteinase domain-containing protein 17 (P78536 whole entry, the tested form may be a part): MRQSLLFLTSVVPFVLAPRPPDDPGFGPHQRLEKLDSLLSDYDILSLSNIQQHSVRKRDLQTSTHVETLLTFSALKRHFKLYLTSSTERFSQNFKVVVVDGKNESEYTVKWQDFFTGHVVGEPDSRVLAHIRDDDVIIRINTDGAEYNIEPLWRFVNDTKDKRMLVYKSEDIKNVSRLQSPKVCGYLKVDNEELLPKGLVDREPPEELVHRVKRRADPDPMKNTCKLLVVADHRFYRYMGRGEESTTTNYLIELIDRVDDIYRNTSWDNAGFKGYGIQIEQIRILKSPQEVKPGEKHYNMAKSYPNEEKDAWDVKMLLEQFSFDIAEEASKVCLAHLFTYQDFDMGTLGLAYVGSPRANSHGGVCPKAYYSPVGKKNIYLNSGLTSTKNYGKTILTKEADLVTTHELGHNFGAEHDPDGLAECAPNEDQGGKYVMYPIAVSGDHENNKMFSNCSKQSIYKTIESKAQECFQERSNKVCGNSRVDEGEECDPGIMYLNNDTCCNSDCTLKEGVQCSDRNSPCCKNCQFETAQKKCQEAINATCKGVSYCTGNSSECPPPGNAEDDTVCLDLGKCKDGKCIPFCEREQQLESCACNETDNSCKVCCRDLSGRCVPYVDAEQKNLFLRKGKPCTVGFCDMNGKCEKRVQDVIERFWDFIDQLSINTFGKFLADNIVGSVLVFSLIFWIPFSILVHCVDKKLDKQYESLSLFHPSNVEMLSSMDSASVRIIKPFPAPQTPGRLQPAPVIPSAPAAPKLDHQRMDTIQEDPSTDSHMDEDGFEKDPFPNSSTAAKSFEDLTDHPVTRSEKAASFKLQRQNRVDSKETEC
Chain of 5-hydroxytryptamine receptor 1A (P08908 whole entry): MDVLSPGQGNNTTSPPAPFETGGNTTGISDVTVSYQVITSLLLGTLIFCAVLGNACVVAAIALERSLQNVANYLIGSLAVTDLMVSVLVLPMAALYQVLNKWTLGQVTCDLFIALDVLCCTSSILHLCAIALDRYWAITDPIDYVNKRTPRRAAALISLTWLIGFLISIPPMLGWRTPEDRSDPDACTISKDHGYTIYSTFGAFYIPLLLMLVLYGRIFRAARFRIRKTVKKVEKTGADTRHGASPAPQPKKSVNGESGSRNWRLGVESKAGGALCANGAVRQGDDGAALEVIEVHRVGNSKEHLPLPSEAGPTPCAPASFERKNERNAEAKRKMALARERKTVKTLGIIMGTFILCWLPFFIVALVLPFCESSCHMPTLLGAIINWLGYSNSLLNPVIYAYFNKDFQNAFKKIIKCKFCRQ
Chain of Eukaryotic translation initiation factor 4E (P63073 whole entry): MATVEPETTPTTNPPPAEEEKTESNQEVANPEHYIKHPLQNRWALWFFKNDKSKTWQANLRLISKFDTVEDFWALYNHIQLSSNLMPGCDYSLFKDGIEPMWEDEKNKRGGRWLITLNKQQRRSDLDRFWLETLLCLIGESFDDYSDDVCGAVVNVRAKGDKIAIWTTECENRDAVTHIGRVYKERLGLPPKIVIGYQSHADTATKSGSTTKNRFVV
Chain of Kallikrein-7 (P49862 whole entry, the tested form may be a part): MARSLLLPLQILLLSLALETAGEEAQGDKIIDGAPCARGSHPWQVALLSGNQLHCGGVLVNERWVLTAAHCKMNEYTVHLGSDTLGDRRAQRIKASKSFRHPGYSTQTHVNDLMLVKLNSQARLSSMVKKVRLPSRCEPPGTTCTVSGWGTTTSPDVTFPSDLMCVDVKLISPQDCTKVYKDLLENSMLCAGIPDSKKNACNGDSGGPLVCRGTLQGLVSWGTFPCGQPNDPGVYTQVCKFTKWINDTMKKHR

For `CC1CN(c2nnnn2-c2ccccc2)CC(C)O1` (stereo not given), the EC50 [1] was > 50 µM (not active).
With `CSc1nc2ccc(NC(=O)C3CCCO3)cc2s1` (stereo not given) the EC50 [1] was > 50 µM (not active).
With `NC(=O)c1c(NC(=O)CSc2nnc(-c3ccco3)n2-c2ccccc2)sc2c1CCC2` the IC50 [2] was > 64 µM (inactive) and the IC50 [3] was 10.6 µM (active).
For `CNC(=O)N(O)C1N(C)C(=O)N(CC(=O)OC)C1(C)C` (stereo not given), the EC50 (Troponin, cardiac muscle) was > 71.5 µM (inactive) and the IC50 [3] was > 100 µM (not active).
With `CCC(C)C(=O)N[C@@H](c1ccccc1)[C@@H](O)C(=O)O[C@H]1C[C@@]2(O)[C@@H](OC(=O)c3ccccc3)C3[C@](C)(C(=O)[C@H](OC(C)=O)C(=C1C)C2(C)C)[C@@H](O)C[C@H]1OC[C@@]31OC(C)=O` (stereo not given in full) the IC50 [4] was 0.244 µM (active), the IC50 [5] was > 80 µM (inactive) and the EC50 (cells [6]) was 0.025 µM (active). For the same compound, the EC50 [7] was 6.26 µM (active) and the EC50 [8] was < 0.1 µM (active).
In the case of `COc1cc(-c2cc(=O)c3c(O)c(OC)c(OC)cc3o2)cc(OC)c1O`, the IC50 [9] is reported as > 80 µM (inactive).
In the case of `Cc1c(C(=O)N2CCc3ccccc32)cnn1C`, the EC50 (Transthyretin) is reported as > 167 µM (inactive).
In the case of `COc1ccc(C(=O)NC2CCCc3c2cnn3-c2cc(F)cc(F)c2)c(OC)c1OC` (stereo not given), the EC50 (Transthyretin) is reported as > 167 µM (inactive).
For `O=[N+]([O-])c1cccnc1N1CCC(c2cc(-c3cccc(C(F)(F)F)c3)[nH]n2)CC1`, the AC50 [10] was 2.87 µM (active), the CC50 [11] was 28.7 µM (active) and the IC50 [12] was 12.7 µM (inactive).
In the case of `O=[N+]([O-])c1cccnc1N1CCC(c2cc(-c3cccc(C(F)(F)F)c3)n[nH]2)CC1`, the IC50 [13] is reported as > 69.5 µM (inactive).
In the case of `COc1ccccc1CCNS(=O)(=O)CCNC(=O)c1ccc2c(c1)OCO2`, the IC50 [14] is reported as 6.62 µM (active), the EC50 [15] is reported as 4.48 µM (active) and the EC50 (cells [16]) is reported as > 29.9 µM (inactive). For the same compound, the IC50 (cells [17]) was > 29.9 µM (inactive).
With `COc1ccc(OC)c(/C=C/C(=O)N(C)CC(=O)Nc2ccc(N3CCOCC3)cc2)c1` the EC50 (Kallikrein-7) was > 69.5 µM (inactive).
In the case of `Cc1ccc(/C=N/Nc2nnc(Cl)c3ccccc23)cc1`, the EC50 [18] is reported as > 67.5 µM (inactive) and the IC50 [19] is reported as > 67.5 µM (inactive).
With `CCCCC[C@@H](C)N1C[C@@H](COCc2ccccc2)Oc2cc(N3CC[C@H](O)C3)ccc2S1(=O)=O` the IC50 [12] was 11.3 µM (inactive) and the IC50 [13] was > 69.5 µM (inactive).
For `C[C@@H]1CN([C@H](C)CO)C(=O)c2cc(NC(=O)Nc3ccc4c(c3)OCO4)ccc2O[C@@H](C)CCCCO[C@H]1CN(C)Cc1ccc(C(F)(F)F)cc1`, the AC50 [20] was 12.8 µM (active), the AC50 (Paired box protein Pax-8) was 8.35 µM (active) and the AC50 [21] was 11.6 µM (active). For the same compound, the AC50 [22] was > 60 µM (inactive).
For `O=C(C[C@@H]1CC[C@H]2[C@@H](COC[C@@H](O)CN2Cc2cccc(F)c2)O1)NCC1CCCCC1`, the AC50 [23] was 61.8 µM (active) and the AC50 (Paired box protein Pax-8) was 34 µM (active).
With `c1ccc(Cc2cnc(N3CCNCC3)nc2)cc1` the IC50 [14] was > 29.9 µM (inactive), the EC50 [15] was 7.24 µM (active) and the EC50 (cells [16]) was > 29.9 µM (inactive). The IC50 (cells [17]) was > 29.9 µM (inactive).
With `C[C@@H]1CN([C@H](C)CO)C(=O)c2cc(NS(=O)(=O)c3ccc(Cl)cc3)ccc2O[C@@H](C)CCCCO[C@H]1CN(C)S(=O)(=O)c1ccc(F)cc1` the AC50 [20] was 43.9 µM (active), the AC50 (Paired box protein Pax-8) was 2.46 µM (active) and the AC50 [22] was > 70 µM (inactive).
In the case of `CCN(CC)CCCCNC1=C(Nc2ccccc2)C(=O)c2ccccc2C1=O`, the AC50 [24] is reported as > 70 µM (inactive) and the AC50 [25] is reported as > 70 µM (inactive).
With `O=C(NC1=C(N2CCCCC2)C(=O)c2ccccc2C1=O)c1ccc(Br)cc1` the AC50 [24] was > 70 µM (inactive) and the AC50 [25] was 50.3 µM (active).
With `Cc1c(C(=O)O)c(O)cc2c1C(=O)c1c(O)c([C@@H]3O[C@H](CO)[C@@H](O)[C@H](O)[C@H]3O)c(O)c(O)c1C2=O` [CARMINIC ACID] the IC50 [9] was 19.5 µM (active).
